# Values of other authors in patent publication US20190011434A1, “METHODS TO DETERMINE CANCER TREATMENT USING ROBOTIC HIGH-THROUGHPUT DRUG SENSITIVITY TESTING” (AntiCancer, Inc., priority 2017, published 2019).
# How the values were obtained:
# [1] = system: head and neck squamous cell carcinoma (HNSCC) tumor specimens; conditions: 41 evaluated tumors; cisplatin 15 microg/mL or 5-fluorouracil 40 microg/mL; sensitivity = inhibition rate greater than 30%
# [2] = system: primary tumor and axillary lymph node metastasis from breast cancer patients; conditions: 30 patients; cutoff drug concentrations; 7 days incubation; p<0.05
Compound,Resistance in the HDRA (share of cases) [1] [%],Chemosensitivity of lymph node metastases compared with primary tumor [2]
O=c1[nH]cc(F)c(=O)[nH]1 [5-fluorouracil],32,more resistant than the primary tumor
"COc1cccc2c1C(=O)c1c(O)c3c(c(O)c1C2=O)C[C@@](O)(C(=O)CO)C[C@@H]3O[C@H]1C[C@H](N)[C@H](O)[C@H](C)O1 [DOX, doxorubicin]",–,more resistant than the primary tumor
"CO[C@@]12[C@H](COC(N)=O)C3=C(C(=O)C(C)=C(N)C3=O)N1C[C@@H]1N[C@@H]12 [MMC, mitomycin C]",–,more resistant than the primary tumor
N.N.[Cl][Pt][Cl] [cisplatinum],32,not
